Results taken from publication PMC3328449, “Inhibition of Diacylglycerol–Sensitive TRPC Channels by Synthetic and Natural Steroids” (PLoS ONE, 2012).

Biological target: T1, human α1A-receptors (Homo sapiens, UniProt P35348)
T1 construct: expressed in transfected cells
T1 sequence (P35348 1-466): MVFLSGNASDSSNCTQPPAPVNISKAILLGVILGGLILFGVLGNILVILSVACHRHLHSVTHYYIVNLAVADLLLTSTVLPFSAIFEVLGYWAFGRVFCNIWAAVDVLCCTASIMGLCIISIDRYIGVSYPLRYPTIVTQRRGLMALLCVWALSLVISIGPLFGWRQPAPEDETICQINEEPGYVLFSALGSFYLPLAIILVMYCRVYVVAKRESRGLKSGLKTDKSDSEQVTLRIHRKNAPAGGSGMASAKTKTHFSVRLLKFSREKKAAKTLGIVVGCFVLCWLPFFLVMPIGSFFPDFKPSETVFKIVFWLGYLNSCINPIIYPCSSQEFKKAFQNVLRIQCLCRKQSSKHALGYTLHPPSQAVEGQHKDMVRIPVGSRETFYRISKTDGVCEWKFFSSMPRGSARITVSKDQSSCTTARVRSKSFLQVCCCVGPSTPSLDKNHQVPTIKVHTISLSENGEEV
Assay: Phenylephrine-induced Ca2+ release in CHO cells expressing human α1A-receptors (fluo-4)
Format: cell-based
Conditions: 10 µM phenylephrine, 1 mM EGTA buffer
Experimental: For measurement of norgestimate effects on adrenoceptor signaling a CHO cell line stably expressing human α1A-receptors (GenBank accession number NM_000680.2) under control of a CMV promoter was used. CHO cells were kept in HAM's F-12 medium (with glutaMAX I) supplemented with 10% (v/v) fetal bovine serum (Biochrom), 1 mM glutamine, and 0.6 mg/ml geneticin.
[Ca^2+]i measurements in CHO cells stably expressing human α1A –receptors were performed essentially as described for HEK-FITR cells. The α1- agonist phenylephrine was used for receptor stimulation.
Supplementary file pone.0035393.s001.tif: Figure S1 Stimulatory effect of norgestimate on α1A- receptor-mediated Ca^2+ signaling in CHO cells. (A) Phenylephrine (Phe) -induced changes of [Ca^2+]i were measured in a stable CHO cell line expressing human α1A-adrenoceptors. Cells loaded with fluo-4 were pre-incubated with or without 30 µM norgestimate (NG) and challenged with 10 µM phenylephrine or control buffer. Representative traces are shown. Fluorometric imaging plate reader [Ca^2+]i measurements were performed essentially as described for HEK-FITR cells (see Materials and Methods) with the exception that the extracellular buffer contained 1 mM EGTA instead of 2 mM Ca^2+. (B) The relative increase in Ca^2+ release induced in the presence of different concentrations of norgestimate is shown. […]

C#C[C@]1(OC(C)=O)CC[C@H]2[C@@H]3CCC4=CC(=NO)CC[C@@H]4[C@H]3CC[C@@]21CC (mixture of isomers) [norgestimate]
Effect on phenylephrine-induced Ca2+ release: significantly stimulated
